One may read the clearance as a measure of how efficiently the substance is removed, as volume per time. A higher clearance goes with a high capacity for elimination. What is called IC50 is the concentration needed to halve the response being measured. Read a high IC50 as weaker potency.

Read-outs that look alike come from different tables or passages of the source.

The values that follow come from patent publication US12479823B2, “Compound for use in retinal diseases” (ZHUHAI UNITED LABORATORIES CO., LTD., priority 2018, dated 2025).

Data set [1] in a line: Pharmacokinetics in cynomolgus monkeys, single intravenous injection. In kind it is in vivo. The settings on record: male, cynomolgus monkey, plasma, 1 mg/kg single intravenous injection. The procedure:
Objective: To Study Pharmacokinetics of the Compound in Cynomolgus Monkeys
Experimental material: Cynomolgus Monkeys (male, 2.5-4 kg, greater than or equal to 2 years, Jingang Biotech)
Pharmacokinetic profiles of the compound were tested by intravenous administration in monkeys according to the standard protocol. In the study, the candidate compound was prepared as a clear solution, and was administered to cynomolgus monkeys at 1 mg/kg by single intravenous injection. A vehicle for intravenous injection was a 10% hydroxypropyl ß-cyclodextrin aqueous solution. Whole blood samples were collected at 0.033, 0.083, 0.25, 0.5, 1, 2, 4, 8, 12, and 24 hours, respectively, centrifuged at 3000 r for 10 min, and separated from supernatant to obtain plasma samples. 20 μL of plasma samples were mixed with 400 μL of acetonitrile precipitated proteins containing an internal standard, and 2 μL of the supernatant was injected by centrifugation. Plasma concentrations were quantified by LC-MS/MS analysis, and pharmacokinetic parameters, such as clearance, half-life, and area under the concentration-time curve, etc. were calculated.

The target in the next data set is T1, CYP1A2 (Homo sapiens, UniProt P05177).
T1 construct: fused human liver microsomes were selected as a CYP450 enzyme source; from tissue; host or cells: pooled ("fused") human liver microsomes
T1 sequence (P05177 1-516): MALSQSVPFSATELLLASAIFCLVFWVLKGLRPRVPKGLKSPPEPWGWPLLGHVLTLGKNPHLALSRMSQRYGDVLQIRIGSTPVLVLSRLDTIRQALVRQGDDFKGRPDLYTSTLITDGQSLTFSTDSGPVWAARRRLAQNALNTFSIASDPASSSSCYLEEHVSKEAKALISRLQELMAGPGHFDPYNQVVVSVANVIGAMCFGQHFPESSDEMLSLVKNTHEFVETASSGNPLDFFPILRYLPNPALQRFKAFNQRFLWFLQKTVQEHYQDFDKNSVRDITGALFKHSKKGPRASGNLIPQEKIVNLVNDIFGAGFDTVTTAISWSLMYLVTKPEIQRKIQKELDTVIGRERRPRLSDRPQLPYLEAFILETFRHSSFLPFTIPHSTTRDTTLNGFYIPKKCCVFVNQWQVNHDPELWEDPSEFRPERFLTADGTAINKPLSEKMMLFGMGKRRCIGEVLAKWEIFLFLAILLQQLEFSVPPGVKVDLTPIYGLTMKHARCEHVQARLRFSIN
The data set is described as follows: Inhibition of human liver microsomal cytochrome P450 CYP1A2. In kind it is in vitro ADME. The settings on record: human liver microsomes, probe substrate, NADPH. The source says:
(§1) Objective: To study the inhibitory effect of compounds on human liver microsomal cytochrome P450. Experimental procedures: In the study on inhibition of the compounds on the human liver microsomal cytochrome P450 (CYP1A2, CYP2C9, CYP2C19, CYP2D6 and CYP3A4), fused human liver microsomes were selected as a CYP450 enzyme source. […]

The target of a further data set is T2, CYP3A4 (Homo sapiens, UniProt P08684).
T2 construct: fused human liver microsomes were selected as a CYP450 enzyme source; from tissue; host or cells: pooled ("fused") human liver microsomes
T2 sequence (P08684 whole entry, the tested form may be a part): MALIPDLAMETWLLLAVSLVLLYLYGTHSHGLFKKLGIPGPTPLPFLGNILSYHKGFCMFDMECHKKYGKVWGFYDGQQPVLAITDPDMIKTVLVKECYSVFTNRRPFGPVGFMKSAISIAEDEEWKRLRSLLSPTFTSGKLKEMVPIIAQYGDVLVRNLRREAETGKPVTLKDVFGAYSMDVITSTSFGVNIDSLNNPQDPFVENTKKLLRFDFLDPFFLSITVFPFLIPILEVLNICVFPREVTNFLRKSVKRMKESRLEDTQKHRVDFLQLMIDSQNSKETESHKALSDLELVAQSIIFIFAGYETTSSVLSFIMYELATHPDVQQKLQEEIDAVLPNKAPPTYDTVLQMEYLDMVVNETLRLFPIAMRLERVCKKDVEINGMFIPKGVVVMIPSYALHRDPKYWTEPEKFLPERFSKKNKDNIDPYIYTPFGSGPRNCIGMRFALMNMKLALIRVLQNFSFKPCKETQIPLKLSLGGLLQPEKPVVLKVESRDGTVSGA
Nature of the data set: Inhibition of human liver microsomal cytochrome P450 CYP3A4. The settings on record: human liver microsomes, two probe substrates, NADPH. In kind it is in vitro ADME.
Description: as §1
(Liver microsomes are a subcellular fraction often used to study metabolism.)

Another data set has as its target T3, CYP2C9 (Homo sapiens, UniProt P11712).
T3 construct: fused human liver microsomes were selected as a CYP450 enzyme source; from tissue; host or cells: pooled ("fused") human liver microsomes
The data set is described as follows: Inhibition of human liver microsomal cytochrome P450 CYP2C9. In kind it is in vitro ADME. The settings on record: human liver microsomes, probe substrate, NADPH.
Description: as §1

Data set [2] can be described thus: Pharmacokinetics in SD rats, intravenous injection for 5 consecutive days. In kind it is in vivo. The settings on record: male, Sprague-Dawley (SD), rat, plasma, 20 mg/kg, 20 mg/kg intravenous daily. On the procedure: Objective: To study 5-day Toxicology of Compounds in SD Rats
Experimental materials: SD rats (male, 200-300 g, 7-9 weeks old, Shanghai Lingchang)
Pharmacokinetic profiles of the compound were tested by intravenous injection in rodents according to the standard protocol. In the study, the candidate compound was prepared as a clear solution, and was administered to SD rats at 20 mg/kg by single intravenous injection for 5 consecutive days. A vehicle for intravenous injection was a 10% hydroxypropyl β-cyclodextrin aqueous solution. Whole blood samples were collected at 0.033, 0.083, 0.25, 0.5, 1, 2, 4, 8, and 24 hours postdose on Day 1 and Day 5 of dosing, centrifuged at 3000 r for 10 min, and separated from supernatant to obtain plasma samples. 15 μL of plasma samples were mixed with 300 μL of acetonitrile precipitated proteins containing an internal standard, and 2 μL of the supernatant was injected by centrifugation. Plasma concentrations were quantified by LC-MS/MS analysis, and pharmacokinetic parameters, such as clearance, half-life, and area under the concentration-time curve, were calculated.

The next data set concerns the target T4, CYP2C19 (Homo sapiens, UniProt P33261).
T4 construct: fused human liver microsomes were selected as a CYP450 enzyme source; from tissue; host or cells: pooled ("fused") human liver microsomes
Nature of the data set: Inhibition of human liver microsomal cytochrome P450 CYP2C19. In kind it is in vitro ADME. The settings on record: human liver microsomes, probe substrate, NADPH.
Description: as §1

Data set [3] can be described thus: Corneal and plasma drug concentration after eye drops in rats. In kind it is in vivo. On the procedure:
Objective: To Study the Ratio of Corneal to Plasma Drug Concentration After Eye Drops in Rats
Experimental Materials: Male SD Rats, 200-300 g, 7-9 weeks old, Shanghai Lingchang
Experimental procedures: The candidate compound was prepared as a clear solution, and administered to SD rats by eye drops. The vehicle for eye drops was 10% hydroxypropyl β-cyclodextrin aqueous solution, and the drug concentration in the eye drops was 5 mg/mL. Corneal and whole blood samples were collected at 1 and 4 hours, respectively. The corneal samples was homogenized in 15 mM phosphate buffer (PBS): MeoH (2:1, v: v) buffer, the whole blood samples were centrifuged at 3000 r for 10 min, and the supernatant plasma samples were separated. 20 μL of the plasma samples and homogenate samples were mixed with 400 μL of acetonitrile precipitated proteins containing an internal standard, respectively, and 2 μL of the supernatant was injected by centrifugation. The plasma concentrations were quantified by LC-MS/MS analysis; the drug concentrations in the cornea and plasma were measured respectively according to different time points, and the ratio of corneal/plasma concentrations was calculated.

T4 sequence (P33261 whole entry, the tested form may be a part): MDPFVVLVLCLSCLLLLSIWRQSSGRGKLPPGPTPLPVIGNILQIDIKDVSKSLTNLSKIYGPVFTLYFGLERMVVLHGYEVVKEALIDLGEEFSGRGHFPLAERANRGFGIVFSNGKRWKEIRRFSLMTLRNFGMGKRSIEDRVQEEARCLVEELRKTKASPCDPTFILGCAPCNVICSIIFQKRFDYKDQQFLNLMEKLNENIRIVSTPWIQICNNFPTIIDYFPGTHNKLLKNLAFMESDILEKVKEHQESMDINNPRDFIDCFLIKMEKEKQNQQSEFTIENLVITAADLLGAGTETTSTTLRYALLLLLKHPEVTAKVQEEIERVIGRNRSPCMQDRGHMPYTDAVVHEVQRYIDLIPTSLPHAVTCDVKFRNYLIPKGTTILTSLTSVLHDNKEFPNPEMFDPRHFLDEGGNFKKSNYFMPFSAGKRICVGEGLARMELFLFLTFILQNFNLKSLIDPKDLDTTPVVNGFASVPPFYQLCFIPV
T3 sequence (P11712 whole entry, the tested form may be a part): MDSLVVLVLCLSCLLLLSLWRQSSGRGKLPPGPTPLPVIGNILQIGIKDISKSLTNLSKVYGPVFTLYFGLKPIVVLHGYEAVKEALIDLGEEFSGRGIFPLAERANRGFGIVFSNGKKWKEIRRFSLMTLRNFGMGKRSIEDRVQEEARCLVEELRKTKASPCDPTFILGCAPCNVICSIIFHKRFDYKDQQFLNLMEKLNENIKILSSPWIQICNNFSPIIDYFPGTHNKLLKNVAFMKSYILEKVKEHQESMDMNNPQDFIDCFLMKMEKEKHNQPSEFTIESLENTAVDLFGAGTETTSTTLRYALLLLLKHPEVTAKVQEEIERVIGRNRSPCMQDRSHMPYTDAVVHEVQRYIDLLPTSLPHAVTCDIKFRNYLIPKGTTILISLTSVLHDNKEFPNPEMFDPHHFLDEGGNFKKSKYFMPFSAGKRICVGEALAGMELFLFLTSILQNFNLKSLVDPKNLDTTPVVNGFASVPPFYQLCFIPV

For the compound `CC(C)(O)c1ccc(-c2cnc(C(C)(C)O)c(N)c2)cc1N` [Compound 3], the clearance in data set [1] is 6.2 mL/min/kg; in data set [2] (Day 1), 7.11 mL/min/kg; in data set [2] (Day 5), 9.04 mL/min/kg. Moreover, the AUC in data set [1] (read-out: Area under the concentration-time curve AUC) amounted to 9.16 µM·h; in data set [2] (Day 1, read-out: Area under the concentration-time curve AUC), 156 µM·h; in data set [2] (Day 5, read-out: Area under the concentration-time curve AUC), 123 µM·h. For the same compound, the half-life is 3.81 h in data set [1] (read-out: Half-time T1/2 (converted)); 2.45 h in data set [2] (Day 1, read-out: Half-time T1/2 (converted)); 2.72 h in data set [2] (Day 5, read-out: Half-time T1/2 (converted)). In addition, the half-maximal inhibitory concentration (IC50) against CYP1A2, against CYP3A4, at CYP2C9 and against CYP2C19 was greater than 50 µM throughout. Moreover, the “entry into the cornea by eye drops” value in data set [3] (SD rats, eye drops, result in words) is on record as “could enter the cornea by eye drops”. In addition, the concentration at 1 h in data set [3] (male, Sprague-Dawley (SD), rat, cornea, topical, eye drops 5 mg/mL, 1 h, read-out: Corneal Concentration) was 1800 nM; in data set [3] (male, Sprague-Dawley (SD), rat, plasma, topical, eye drops 5 mg/mL, 1 h, read-out: Plasma Concentration), 162 nM. The concentration at 4 h in data set [3] (male, Sprague-Dawley (SD), rat, cornea, topical, eye drops 5 mg/mL, 4 h, read-out: Corneal Concentration) came out at 581 nM; in data set [3] (male, Sprague-Dawley (SD), rat, plasma, topical, eye drops 5 mg/mL, 4 h, read-out: Plasma Concentration) it was 43.8 nM. Also, the Kp in data set [3] (male, Sprague-Dawley (SD), rat, cornea/plasma, topical, 5 mg/mL, eye drops, statement in the conclusion, no time point, read-out: ratio of cornea/plasma concentrations) is greater than 10. Besides, the Kp at 1 h in data set [3] (male, Sprague-Dawley (SD), rat, cornea/plasma, topical, eye drops 5 mg/mL, 1 h, read-out: Corneal Concentration/Plasma Concentration C/P ratio) amounted to 14.3. In addition, the Kp at 4 h in data set [3] (male, Sprague-Dawley (SD), rat, cornea/plasma, topical, eye drops 5 mg/mL, 4 h, read-out: Corneal Concentration/Plasma Concentration C/P ratio) worked out at 16.6.
